In paper PMC12735739, “Bromo Analogues of Active 3,4,5,4′-Tetramethoxy-trans-stilbene (DMU-212)—A New Path of Research to Anticancer Agents” (Molecules, 2025):
In brackets after ≈: the same amount, converted by molar mass.

What was measured:
[1] = tested on: ovarian cancer 2D culture; design: method as in PMID 27585955; conditions: 2D culture and liposomal drug delivery system; cited from earlier work
SK-OV-3 (3D model) = tested on: SK-OV-3 (3D model); design: method as in PMID 27585955; conditions: 3D spheroid model; cited from earlier work
[2] = tested on: patient P3 cell lines (3D model, patient-derived ovarian cancer); design: method as in PMID 27585955; conditions: 3D spheroid model; cited from earlier work
[3] = tested on: Jurkat human acute T-cell leukaemia; test: MTT cell viability assay, Jurkat; type: cell-based; conditions: MTT test, 72 h of action, read-out: IC50, Tumour Cell Lines, Jurkat Human Acute T-Cell Leukaemia
Experimental: (§1) The MTT cell viability assay was performed according to a previously reported protocol. Briefly, adherent cells were seeded at a density of 5000 cells per 100 µL, and suspension cells at 25,000 cells per 100 µL, in 96-well plates and incubated overnight. Subsequently, test compounds were added in 100 µL of culture medium, followed by incubation for 72 h. After treatment, 20 µL of MTT solution (5 mg/mL, Sigma-Aldrich, Burlington, MA, USA) was added to each well. The resulting formazan crystals were dissolved in DMSO (Sigma-Aldrich, Burlington, MA, USA), and absorbance was recorded using a BioTek ELx800 Absorbance Reader (BioTek Instruments, Inc., Vinooski, VT, USA). IC50 values were calculated by nonlinear regression analysis using GraphPad Prism (version 9.1.1, GraphPad Software, Boston, MA, USA). Experiments were conducted in triplicate. Human leukemia Jurkat T-cells, human glioblastoma U251 cells were kindly provided by Collection at the Institute of Molecular Biology and Genetics, National Academy of Sciences of Ukraine (Kyiv, Ukraine). Murine macrophages of J774.2 line were a generous gift from Prof. Sir John Vane (William Harvey Research Institute, London, UK) provided via Prof. Janusz Marcinkiewicz (Jagiellonian University Medical College, Krakow, Poland). Human colorectal adenocarcinoma cell line HT-29 was kindly provided by Prof. Anna Bielawska (Department of Biotechnology, Faculty of Pharmacy, Medical University of Bialystok, Poland). Murine BALB/3T3 fibroblasts was obtained from the Cell Collection of the R.E. Kavetsky Institute of Experimental Pathology, Oncology and Radiobiology (Kyiv, Ukraine).

[4] = tested on: U251 human malignant glioblastoma; test: MTT cell viability assay, U251; type: cell-based; conditions: U-251, MTT test, 72 h of action, read-out: IC50, Tumour Cell Lines, U251 Human Malignant Glioblastoma
Experimental: as §1

[5] = tested on: HT-29 human colorectal carcinoma; test: MTT cell viability assay, HT-29; type: cell-based; conditions: MTT test, 72 h of action, read-out: IC50, Tumour Cell Lines, HT-29 Human Colorectal Carcinoma
Experimental: as §1

Balb-3T3 mice fibroblast = test: MTT cell viability assay, Balb-3T3; type: cell-based; conditions: Mus musculus, MTT test, 72 h of action, read-out: IC50, Pseudo-Normal Cell Lines, Balb-3T3 Mice Fibroblast
Experimental: as §1

[6] = tested on: J744.2 mice macrophage-like cells; test: MTT cell viability assay, J744.2; type: cell-based; conditions: Mus musculus; MTT test, 72 h of action; read-out: IC50, Pseudo-Normal Cell Lines, J744.2 Mice Macrophage-Like Cells
Experimental: as §1

Mucor indicus = tested on: Mucor indicus; design: method as in PMID 30790326; conditions: cited from earlier work
[7] = tested on: human lung cancer cells (A549); design: method as in PMID 15464834, doi:10.1177/1934578X0700200419; conditions: read-out: IC50 in cultured human lung cancer cells (A549); cited from earlier work
salmon sperm DNA = test: DNA intercalation assay (methyl green displacement method); type: binding; conditions: 1 and 10 μM; for percentage of methyl green dye replaced from its complex with DNA: range over both doses; for affinity for DNA: methyl green displacement, in words
Experimental: To investigate the potential mechanisms of cell death induced by the studied derivative, we evaluated apoptosis using the fluorescence microscopy of cells stained with Hoechst-33342 and Ethidium Bromide (EtBr), as well as spectroscopic and DNA/methyl green displacement assays. Methyl green is a cationic dye that binds preferentially to the phosphate backbone of DNA (primarily in the major groove). If a compound (an intercalator or groove-binding agent) is added, it can compete with methyl green for binding to DNA. The higher the percentage of substituted methyl green, the stronger the compound interacts with DNA. Intercalation is the key feature of clinically used antitumor drugs, e.g., doxorubicin (DOX). DOX displaced 41.62–45.52% of methyl green from its complex with DNA (Figure 10). Another intercalator, EtBr, replaced 42.12–47.35% of methyl green from its complex with DNA.
A 485 μL aliquot of salmon sperm DNA (50 μg/mL, Sigma-Aldrich, Burlington, MA, USA) was incubated with 15 μL of methyl green solution (1 mg/mL, Sigma-Aldrich, Burlington, MA, USA) at 37 °C for 1 h. Subsequently, 500 μL of the test compounds, doxorubicin, or ethidium bromide (each at final concentrations of 1 μM and 10 μM) was added to the preformed methyl green–DNA complex. The samples were further incubated at 37 °C for 2 h in the dark. Absorbance was then recorded at 630 nm. GraphPad Prism (version 9.1.1, GraphPad Software, Boston, MA, USA) was used for the results analysis. Experiments were conducted in triplicate. Doxorubicin and ethidium bromide were purchased from Sigma-Aldrich, USA.

Jurkat cells = test: Fluorescent microscopy of Jurkat cells (Hoechst 33342/EtBr staining); type: cell-based, human; conditions: 0.5 µM, 24 h
Experimental: Jurkat cells were seeded in 24-well plates at a density of 250,000 cells/mL and incubated overnight prior to treatment. Cells were then treated for 24 h with compounds 4, 7, and 8 (0.5 µM) or doxorubicin (0.5 µM) as a positive control. Following treatment, cells were stained with Hoechst 33342 (0.2–0.5 µg/mL; Sigma-Aldrich, USA) and ethidium bromide (EtBr, 1 µg/mL). Fluorescence imaging was performed using a LIM-400 microscope (LABEX INSTRUMENT LIMITED, Ningbo, China) equipped with an MTR3CCD camera. Images were captured and analysed using ImageView software (version 4.11.21522.20221011).

pancreas BXPC-3 = tested on: pancreas BXPC-3; design: method as in PMID 15943482; conditions: cited from earlier work
neuroblast SK-N-SH = tested on: neuroblast SK-N-SH; design: method as in PMID 15943482; conditions: cited from earlier work
lung-NSC NCI-H460 = tested on: lung-NSC NCI-H460; design: method as in PMID 15943482; conditions: cited from earlier work
prostate DU-145 = tested on: prostate DU-145; design: method as in PMID 15943482; conditions: cited from earlier work
[8] = tested on: Staphylococcus aureus 209P; design: method as in PMID 37298957; conditions: in words; cited from earlier work
P450 CYP1B1 isoform = tested on: P450 CYP1B1 isoform; design: method as in PMID 28632937; conditions: read-out: IC50 against the P450 CYP1B1 isoform; cited from earlier work
[9] = tested on: HeLa, MDA-MB-231, and MCF-7; design: method as in PMID 32171988; conditions: in words; cited from earlier work
cervical cancer HeLa = tested on: cervical cancer HeLa; design: method as in PMID 28669347; conditions: cited from earlier work
glioblastoma U87 = tested on: glioblastoma U87; design: method as in PMID 28669347; conditions: cited from earlier work

Compound: 3-hydroxy-3,4,5,4′-tetramethoxy-trans-stilbene [DMU-214]
- IC50 [1]: 0.022 µM
- IC50 (SK-OV-3 (3D model)): 2.9 to 14.1 µM
- IC50 [2]: 0.5 to 22.9 µM

Compound: COc1cc(/C=C/c2ccc(Br)cc2)cc(OC)c1OC [Compound 1, 4-bromo-3′,4′,5′-trimethoxy-trans-stilbene]
- IC50 [3]: 2.26 µM
- IC50 [4]: > 100 µM
- IC50 [5]: > 100 µM
- IC50 (Balb-3T3 mice fibroblast): 3.2 µM
- IC50 [6]: 6.63 µM
- MIC toward Mucor indicus (Mucor indicus): 25 µg/mL (≈ 71.6 µM)
- IC50 [7]: 6.36 µM

Compound: COc1cc(/C=C/c2cc(OC)c(OC)c(OC)c2)cc(Br)c1OC [Compound 2, 3-bromo-3′,4′,5′,4,5-pentamethoxy-trans-stilbene]
- IC50 [3]: > 100 µM
- IC50 [4]: > 100 µM
- IC50 [5]: > 100 µM
- IC50 (Balb-3T3 mice fibroblast): 72.8 µM
- IC50 [6]: 7.93 µM

Compound: COc1cc(/C=C/c2cc(Br)c(OC)c(Br)c2)cc(OC)c1OC [Compound 3, 3,5-dibromo-3′,4′,5′,4-tetramethoxy-trans-stilbene]
- IC50 [3]: > 100 µM
- IC50 [4]: > 100 µM
- IC50 [5]: > 100 µM
- IC50 (Balb-3T3 mice fibroblast): 76.4 µM
- IC50 [6]: 20.4 µM

Compound: COc1ccc(/C=C/c2cc(OC)c(OC)c(OC)c2)cc1Br [Compound 4, 3-bromo-3′,4′,5′,4-tetramethoxy-trans-stilbene]
- IC50 [3]: 0.76 µM
- IC50 [4]: > 100 µM
- IC50 [5]: > 100 µM
- IC50 (Balb-3T3 mice fibroblast): 2.85 µM
- IC50 [6]: 5.21 µM
- percentage of methyl green dye replaced from its complex with DNA (salmon sperm DNA): 1.87–5.98%
- affinity for DNA (salmon sperm DNA): low affinity for DNA
- effect on cell morphology and viability (apoptosis, chromatin condensation, DNA fragmentation) (Jurkat cells): induced moderate apoptosis
- GI50 pancreas BXPC-3 (pancreas BXPC-3): 0.34 µg/mL (≈ 0.897 µM)
- GI50 neuroblast SK-N-SH (neuroblast SK-N-SH): 0.40 µg/mL (≈ 1.05 µM)
- GI50 lung-NSC NCI-H460 (lung-NSC NCI-H460): 0.36 µg/mL (≈ 0.949 µM)
- GI50 prostate DU-145 (prostate DU-145): 0.45 µg/mL (≈ 1.19 µM)

Compound: COc1cc(Br)c(/C=C/c2cc(OC)c(OC)c(OC)c2)cc1OC [Compound 5, 2-bromo-3′,4′,5′,4,5-pentamethoxy-trans-stilbene]
- IC50 [3]: 68.5 µM
- IC50 [4]: > 100 µM
- IC50 [5]: > 100 µM
- IC50 (Balb-3T3 mice fibroblast): 51.7 µM
- IC50 [6]: 71.1 µM

Compound: COc1cc(/C=C/c2cc(Br)cc(Br)c2)cc(OC)c1OC [Compound 6, 3,5-dibromo-3′,4′,5′-trimethoxy-trans-stilbene]
- IC50 [3]: 65.3 µM
- IC50 [4]: > 100 µM
- IC50 [5]: > 100 µM
- IC50 (Balb-3T3 mice fibroblast): 3.75 µM
- IC50 [6]: 9.97 µM

Compound: COc1ccc(/C=C/c2cc(OC)c(OC)c(OC)c2)cc1 [Compound 7, 3,4,5,4′-tetramethoxy-trans-stilbene]
- IC50 [3]: 0.65 µM
- IC50 [4]: > 100 µM
- IC50 [5]: > 100 µM
- IC50 (Balb-3T3 mice fibroblast): 2.79 µM
- IC50 [6]: 0.83 µM
- percentage of methyl green dye replaced from its complex with DNA (salmon sperm DNA): 1.87–5.98%
- affinity for DNA (salmon sperm DNA): low affinity for DNA
- effect on cell morphology and viability (apoptosis, chromatin condensation, DNA fragmentation) (Jurkat cells): markedly reduced viable cell numbers and enhanced nuclear fragmentation

Compound: COc1ccc(/C=C/c2cc(OC)c(OC)c(OC)c2)cc1OC [Compound 8, 3,3′,4,4’,5-pentamethoxy-trans-stilbene]
- IC50 [3]: 0.82 µM
- IC50 [4]: > 100 µM
- IC50 [5]: > 100 µM
- IC50 (Balb-3T3 mice fibroblast): 5.04 µM
- IC50 [6]: 3.83 µM
- percentage of methyl green dye replaced from its complex with DNA (salmon sperm DNA): 1.87–5.98%
- affinity for DNA (salmon sperm DNA): low affinity for DNA
- effect on cell morphology and viability (apoptosis, chromatin condensation, DNA fragmentation) (Jurkat cells): induced moderate apoptosis

Compound: COc1cc(OC)c(OC)cc1/C=C/c1ccc(OC)c(OC)c1 [Compound 10, 2,3’,4,4’,5-pentamethoxy-trans-stilbene]
- IC50 [3]: 8.95 µM
- IC50 [4]: > 100 µM
- IC50 [5]: > 100 µM
- IC50 (Balb-3T3 mice fibroblast): > 100 µM
- IC50 [6]: 91.6 µM

Compound: COc1cccc2c1C(=O)c1c(O)c3c(c(O)c1C2=O)C[C@@](O)(C(=O)CO)C[C@@H]3O[C@H]1C[C@H](N)[C@H](O)[C@H](C)O1 [DOX, doxorubicin, reference compound]
- percentage of methyl green dye replaced from its complex with DNA (salmon sperm DNA): 41.62–45.52%
- effect on cell morphology and viability (apoptosis, chromatin condensation, DNA fragmentation) (Jurkat cells): elicited a similar morphological disruption and chromatin fragmentation as compound 8 did

Compound: CC[n+]1c(-c2ccccc2)c2cc(N)ccc2c2ccc(N)cc21 [EtBr, Ethidium Bromide, reference compound]
- percentage of methyl green dye replaced from its complex with DNA (salmon sperm DNA): 42.12–47.35%

Compound: Oc1ccccc1/C=C/c1cc[n+](Cc2ccccc2Br)cc1.[Br-] [IX, 1-(2-bromobenzyl)-4-[(E)-2-(2-hydroxyphenyl)ethenyl]pyridinium bromide]
- activity against Staphylococcus aureus 209P [8]: promising activity

Compound: CSc1ccc(/C=C/c2ccccc2SC)cc1 [VI, 2,4′-dimethylthio-trans-stilbene]
- IC50 (P450 CYP1B1 isoform): 0.026 µM

Compound: CCCCCCCCCCCCCCCC[N+](C)(CCCCCCCCCCCCCCCC)CNC(=O)c1cc(OC)c(OC)c(OC)c1/C=C/c1cc(OC)c(OC)c(OC)c1 [VII, quaternary amine derivative chloride of 4,5,6,3′,4′,5′-hexamethoxy-trans-stilbene]
- antitumor activity against cancer lines compared with resveratrol and tamoxifen [9]: higher antitumor activity

Compound: COc1ccc(/C=C/c2ccc([N+](=O)[O-])cc2[N+](=O)[O-])c(O)c1 [VIII, 2-hydroxy-4-methoxy-2′,4′-ditro-trans-stilbene]
- IC50 (cervical cancer HeLa): 6.97 µM
- IC50 (glioblastoma U87): 55.8 µM

Compound: COc1ccc(/C=C(\C#N)c2cc(OC)c(OC)c(OC)c2)cc1OC [Z isomer of compound XII, reference compound]
- IC50 [7]: 0.03 µM
